The subject of experiment [1] is IL-17-induced GROα secretion from HT-29 cells. As to the kind of experiment: GROα release assay in human colorectal adenocarcinoma epithelial cell (HT-29, ELISA). The format is cell-based. Conditions: Homo sapiens, HT-29, 48 h, 10 ng/mL IL-17A, highest concentration 10 μM, read-out: Cellular assay HT29 cell/CXCL1 IC50. The procedure, abridged:
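IC50 values come from four-parameter fits of GROα levels, quantified by ELISA (450 nm, standard curve) in supernatants. Compounds, 4-fold serially diluted from 10 μM, were mixed 15 min with IL-17A (10 ng/mL final) before 48 h incubation with HT-29 cells at 37°C.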

The target in experiment [2] is human IL-17A / human IL-17RA (Homo sapiens (Human), UniProt Q16552). As to the kind of experiment: Human IL-17A biochemical assay (HTRF, blocking of IL-17A binding to IL-17RA). Conditions: 0.4 nM IL-17A, 0.3 nM IL-17RA, max compound concentration 10 uM. In outline:
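Compounds (10-point, 2.7-fold dilution from 10 uM) preincubated 3 h at RT with 0.4 nM human IL-17A, followed by 1 h with 0.3 nM IL-17RA and 1 h with Tb-cryptate/XL665 antibodies; buffer 20 mM HEPES pH 7.5, 0.1% BSA. Inhibition derived from HTRF fluorescence ratio; IC50 by four-parameter logistic fitting.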

human IL-17A / human IL-17RA, sequence (Q16552 24-155): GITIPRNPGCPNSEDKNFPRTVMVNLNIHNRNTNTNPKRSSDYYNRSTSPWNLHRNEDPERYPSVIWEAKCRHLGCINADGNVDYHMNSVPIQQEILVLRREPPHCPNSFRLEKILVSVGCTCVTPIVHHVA

In the case of `Cc1nonc1C(=O)N[C@H](C(=O)Nc1ccc2c(c1)CC(c1nc3cccc(C(F)(F)F)c3[nH]1)(N1CC3(CC3)CNC1=O)C2)C1CCC(F)(F)CC1` (stereo partly drawn) [Example 192, N-((1S)-1-(4,4-difluorocyclohexyl)-2-oxo-2-((2-(6-oxo-5,7-diazaspiro[2.5]octan-5-yl)-2-(7-(trifluoromethyl)-1H-benzo[d]imidazol-2-yl)-2,3-dihydro-1H-inden-5-yl)amino)ethyl)-4-methyl-1,2,5-oxadiazole-3-carboxamide], the IC50 in experiment [1] is 1240 nM; in experiment [2], 1660 nM.
For `Cn1nccc1C(=O)N[C@H](C(=O)Nc1ccc2c(c1)CC(C(=O)C(F)(F)F)(N1CC3(CC3)CNC1=O)C2)C1CCCCC1` (stereo partly drawn) [Example 193, N-((1S)-1-cyclohexyl-2-oxo-2-((2-(6-oxo-5,7-diazaspiro[2.5]octan-5-yl)-2-(2,2,2-trifluoroacetyl)-2,3-dihydro-1H-inden-5-yl)amino)ethyl)-1-methyl-1H-pyrazole-5-carboxamide] the same measures were 140 nM and 50.7 nM.
For `Cn1nccc1C(=O)N[C@H](C(=O)Nc1ccc2c(c1)CC(C(O)C(F)(F)F)(N1CC3(CC3)CNC1=O)C2)C1CCCCC1` (stereo partly drawn) [Example 194, N-((1S)-1-cyclohexyl-2-oxo-2-((2-(6-oxo-5,7-diazaspiro[2.5]octan-5-yl)-2-(2,2,2-trifluoro-1-hydroxyethyl)-2,3-dihydro-1H-inden-5-yl)amino)ethyl)-1-methyl-1H-pyrazole-5-carboxamide] the same measures were 21 nM and 33.8 nM.
For `CC(C)n1nccc1C(=O)N[C@H](C(=O)Nc1ccc2c(c1)CC(N1C[C@@H](C(F)(F)F)NC1=O)C2)C1CCCCC1` (stereo partly drawn) [Example 195, N-((1S)-1-cyclohexyl-2-oxo-2-((2-((S)-2-oxo-4-(trifluoromethyl)imidazolidin-1-yl)-2,3-dihydro-1H-inden-5-yl)amino)ethyl)-1-isopropyl-1H-pyrazole-5-carboxamide] the same measures were 383 nM and 128 nM.
`CNC(=O)C1(N2C[C@@H](C(C)C)NC2=O)Cc2ccc(NC(=O)C(NC(=O)c3ccnn3C)C3CCc4ccc(Cl)cc4C3)cc2C1` (stereo partly drawn) [Example 196, N-(1-(7-chloro-1,2,3,4-tetrahydronaphthalen-2-yl)-2-((2-((R)-4-isopropyl-2-oxoimidazolidin-1-yl)-2-(methylcarbamoyl)-2,3-dihydro-1H-inden-5-yl)amino)-2-oxoethyl)-1-methyl-1H-pyrazole-5-carboxamide]: the IC50 in experiment [1] was 58.5 nM; in experiment [2], 19.8 nM.
Taken in the same sequence, the figures for `Cn1nccc1C(=O)N[C@H](C(=O)Nc1ccc2c(c1)CC(N1C[C@@H](C(F)(F)F)NC1=O)C2)C(C1CC1)C1CC1` (stereo partly drawn) [Example 197, N-((2S)-1,1-dicyclopropyl-3-oxo-3-((2-((S)-2-oxo-4-(trifluoromethyl)imidazolidin-1-yl)-2,3-dihydro-1H-inden-5-yl)amino)propan-2-yl)-1-methyl-1H-pyrazole-5-carboxamide] were 397 nM and 80.6 nM.
Taken in the same sequence, the figures for `CC(C)n1nccc1C(=O)N[C@H](C(=O)Nc1ccc2c(c1)CC(c1nc3cccc(C(F)(F)F)c3[nH]1)(N1CC3(CC3)CNC1=O)C2)C(C1CC1)C1CC1` (stereo partly drawn) [Example 198, N-((2S)-1,1-dicyclopropyl-3-oxo-3-((2-(6-oxo-5,7-diazaspiro[2.5]octan-5-yl)-2-(7-(trifluoromethyl)-1H-benzo[d]imidazol-2-yl)-2,3-dihydro-1H-inden-5-yl)amino)propan-2-yl)-1-isopropyl-1H-pyrazole-5-carboxamide] were 316 nM and 1130 nM.
Taken in the same sequence, the figures for `Cn1nccc1C(=O)N[C@H](C(=O)Nc1ccc2c(c1)CC(N1CC3(CC3)CNC1=O)C2)C1CCCCC1` (stereo partly drawn) [Example 199, N-((1S)-1-cyclohexyl-2-oxo-2-((2-(6-oxo-5,7-diazaspiro[2.5]octan-5-yl)-2,3-dihydro-1H-inden-5-yl)amino)ethyl)-1-methyl-1H-pyrazole-5-carboxamide] were 2770 nM and 570 nM.
